# Source: patent US20260207565A1, “COMPOUNDS THAT INHIBIT PKMYT1” (Exelixis, Inc., priority 2022, published 2026)
# Columns and labels:
# [1] = molecular target: T1, PKMYT1 (Homo sapiens, UniProt Q99640); assay: ADP-Glo PKMYT1 ATP-depletion assay; conditions: 50 nM PKMYT1, 13.3 nM CDK1, 88 μM ATP, 120 minutes at RT, read-out: Biochemical IC50
# T1 construct: PKMYT1 (93 kD, full length, N-terminal GST tag from Signal Chem); GST (N); purchased Signal Chem
# T1 sequence (Q99640 1-499): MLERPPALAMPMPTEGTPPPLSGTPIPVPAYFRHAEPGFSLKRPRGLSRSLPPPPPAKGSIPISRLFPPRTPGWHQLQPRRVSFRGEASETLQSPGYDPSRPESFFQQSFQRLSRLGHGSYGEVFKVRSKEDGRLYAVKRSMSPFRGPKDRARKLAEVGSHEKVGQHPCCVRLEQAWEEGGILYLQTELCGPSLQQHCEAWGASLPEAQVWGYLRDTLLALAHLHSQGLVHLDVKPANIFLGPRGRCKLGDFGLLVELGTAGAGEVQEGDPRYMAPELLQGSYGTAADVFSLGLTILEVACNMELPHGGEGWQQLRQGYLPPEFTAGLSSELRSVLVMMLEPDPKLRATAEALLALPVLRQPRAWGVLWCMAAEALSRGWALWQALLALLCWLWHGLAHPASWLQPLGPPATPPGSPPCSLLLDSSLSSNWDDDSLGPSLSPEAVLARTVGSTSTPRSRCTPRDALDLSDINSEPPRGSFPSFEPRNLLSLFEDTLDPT
# Procedure, shortened: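 Full-length N-GST PKMYT1 (50 nM) incubated 120 min at RT with full-length GST-CDK1 (13.3 nM) and 88 μM ATP in Hepes buffer containing Mg2+, Mn2+, DTT and BSA; DMSO <10%. ADP formed was converted via ADP-Glo to luminescence; IC50 derived.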
# [2] = tested on: phosphorylation of CDK1 at Thr14 in HCC1806 cells; assay: Cell lysate AlphaLISA assay measuring inhibition of phosphorylation of CDK1 Thr14; format: cell-based; conditions: Homo sapiens, HCC1806, 4 h, compounds incubated 4 hours, AlphaLISA SureFire Ultra CDK1 Thr14, read-out: Cellular IC50
# Procedure, shortened: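 HCC1806 cells treated with compound for 4 h at 37 °C, lysed, and phospho-CDK1 Thr14 quantified by AlphaLISA SureFire Ultra. Data normalized to DMSO (0% inhibition) and 3 μM reference compound; IC50 derived.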
SMILES,IC50 [1],IC50 [2]
"Cc1ccc(O)c(C)c1-c1cc(C(N)=O)cn2ccnc12 [Compound 42, 8-(3-hydroxy-2,6-dimethylphenyl)imidazo[1,2-a]pyridine-6-carboxamide]",1000 to 5000 nM,1000 to 5000 nM
"Cc1c(O)cccc1-c1c(N)c(C(N)=O)cn2ccnc12 [Compound 43, 7-amino-8-(3-hydroxy-2-methylphenyl)imidazo[1,2-a]pyridine-6-carboxamide]",500 to 1000 nM,≥ 5000 nM
"Cc1ccc(O)c(C)c1-c1c(N)c(C(N)=O)cn2ccnc12 [Compound 46, 7-amino-8-(3-hydroxy-2,6-dimethylphenyl)imidazo[1,2-a]pyridine-6-carboxamide]",50 to 500 nM,1000 to 5000 nM
"Cc1cn2cc(C(N)=O)c(N)c(-c3cccc(O)c3C)c2n1 [Compound 47, 7-Amino-8-(3-hydroxy-2-methylphenyl)-2-methylimidazo[1,2-a]pyridine-6-carboxamide]",50 to 500 nM,≥ 5000 nM
"Cc1nc2c(-c3cccc(O)c3C)c(N)c(C(N)=O)cn2c1C [Compound 48, 7-Amino-8-(3-hydroxy-2-methylphenyl)-2,3-dimethylimidazo[1,2-a]pyridine-6-carboxamide]",50 to 500 nM,≥ 5000 nM
"Cc1c(O)cccc1-c1c(N)c(C(N)=O)cn2cc(C(F)(F)F)nc12 [Compound 49, 7-amino-8-(3-hydroxy-2-methylphenyl)-2-(trifluoromethyl)imidazo[1,2-a]pyridine-6-carboxamide]",50 to 500 nM,≥ 5000 nM
"COC(=O)c1cnc2c(-c3cccc(O)c3C)c(N)c(C(N)=O)cn12 [Compound 50, Methyl 7-amino-6-carbamoyl-8-(3-hydroxy-2-methylphenyl)imidazo[1,2-a]pyridine-3-carboxylate]",50 to 500 nM,500 to 1000 nM
"Cc1c(O)cccc1-c1c(N)c(C(N)=O)nc2c1c(C(N)=O)nn2C [Compound 55, 5-amino-4-(3-hydroxy-2-methylphenyl)-1-methyl-1H-pyrazolo[3,4-b]pyridine-3,6-dicarboxamide]",< 50 nM,50 to 500 nM
"Cc1c(O)cccc1-c1c(N)c(C(N)=O)nc2c1cnn2C [Compound 56, 5-Amino-4-(3-hydroxy-2-methylphenyl)-1-methyl-pyrazolo[3,4-b]pyridine-6-carboxamide]",50 to 500 nM,≥ 5000 nM
"Cc1c(O)cccc1-c1c(N)c(C(N)=O)nc2c1c(Br)nn2C [Compound 57, 5-Amino-3-bromo-4-(3-hydroxy-2-methylphenyl)-1-methyl-1H-pyrazolo[3,4-b]pyridine-6-carboxamide]",50 to 500 nM,50 to 500 nM
"Cn1cc(C#N)c2c(-c3cncc(Cl)c3Cl)c(N)c(C(N)=O)nc21 [Compound 66, 5-Amino-3-cyano-4-(4,5-dichloropyridin-3-yl)-1-methyl-1H-pyrrolo[2,3-b]pyridine-6-carboxamide]",< 50 nM,50 to 500 nM
"COc1c(F)cncc1-c1c(N)c(C(N)=O)nc2c1c(C#N)cn2C [Compound 67, 5-Amino-3-cyano-4-(5-fluoro-4-methoxypyridin-3-yl)-1-methyl-1H-pyrrolo[2,3-b]pyridine-6-carboxamide]",< 50 nM,< 50 nM
"CCn1nc(C(=O)NC)c2c(-c3c(C)ccc(O)c3C)c(N)c(C(N)=O)nc21 [Compound 73, 5-Amino-1-ethyl-4-(3-hydroxy-2,6-dimethylphenyl)-N^3-methyl-1H-pyrazolo[3,4-b]pyridine-3,6-dicarboxamide]",< 50 nM,< 50 nM
